Laboratory results reported in article PMC6424628 (Neuropharmacology, 2019).

Tests used:
[1] = target: dopamine transporter (hDAT) (Homo sapiens, UniProt Q01959); assay: [3H]DA uptake inhibition in COS-7 cells expressing hDAT; format: cell-based
[2] = target: norepinephrine transporter (hNET) (Homo sapiens, UniProt P23975); assay: [3H]NE uptake inhibition in COS-7 cells expressing hNET; format: cell-based
Sequence of norepinephrine transporter (hNET) (P23975 whole entry): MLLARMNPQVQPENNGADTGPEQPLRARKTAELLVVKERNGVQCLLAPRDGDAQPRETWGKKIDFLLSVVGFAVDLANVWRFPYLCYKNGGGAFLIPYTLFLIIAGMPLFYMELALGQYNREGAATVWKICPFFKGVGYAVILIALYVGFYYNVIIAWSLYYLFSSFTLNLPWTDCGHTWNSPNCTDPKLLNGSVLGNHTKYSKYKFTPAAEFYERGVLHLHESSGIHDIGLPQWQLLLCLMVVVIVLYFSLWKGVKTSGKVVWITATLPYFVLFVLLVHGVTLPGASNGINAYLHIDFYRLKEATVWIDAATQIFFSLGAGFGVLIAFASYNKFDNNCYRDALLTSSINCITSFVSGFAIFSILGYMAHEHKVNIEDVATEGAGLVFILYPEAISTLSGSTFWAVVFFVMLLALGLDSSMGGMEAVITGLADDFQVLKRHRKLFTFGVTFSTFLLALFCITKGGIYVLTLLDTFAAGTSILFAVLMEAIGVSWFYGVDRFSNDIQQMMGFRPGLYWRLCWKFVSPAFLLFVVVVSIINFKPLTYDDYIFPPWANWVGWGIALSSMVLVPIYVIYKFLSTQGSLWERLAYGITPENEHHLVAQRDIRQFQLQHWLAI

Sequence of dopamine transporter (hDAT) (Q01959 whole entry): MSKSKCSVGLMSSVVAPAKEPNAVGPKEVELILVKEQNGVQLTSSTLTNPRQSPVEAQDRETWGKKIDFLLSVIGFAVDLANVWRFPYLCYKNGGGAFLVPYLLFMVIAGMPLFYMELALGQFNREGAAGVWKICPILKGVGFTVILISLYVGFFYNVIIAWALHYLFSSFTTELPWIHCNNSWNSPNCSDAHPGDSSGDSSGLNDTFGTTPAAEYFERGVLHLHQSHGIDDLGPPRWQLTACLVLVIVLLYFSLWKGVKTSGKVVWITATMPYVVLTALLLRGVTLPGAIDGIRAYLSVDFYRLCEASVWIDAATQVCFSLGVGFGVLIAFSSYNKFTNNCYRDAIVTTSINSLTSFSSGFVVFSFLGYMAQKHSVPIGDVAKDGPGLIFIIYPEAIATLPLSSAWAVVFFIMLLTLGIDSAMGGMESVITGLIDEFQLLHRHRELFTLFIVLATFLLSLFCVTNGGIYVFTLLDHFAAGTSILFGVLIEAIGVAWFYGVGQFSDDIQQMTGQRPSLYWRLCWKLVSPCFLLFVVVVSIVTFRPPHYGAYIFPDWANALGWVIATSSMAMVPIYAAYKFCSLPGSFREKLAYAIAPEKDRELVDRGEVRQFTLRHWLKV

**Q.** `CC(N)CCc1ccccc1Cl` (centres unmarked) [SK609] was tested. Which Ki [1] did it give?
**A.** 5.7 ± 1.3 µM

**Q.** And the Ki [2]?
**A.** 0.57 ± 0.11 µM
